Tests used:
TGF-β signaling [1] = assay: Assay for evaluating cellular inhibition of TGF-β signaling, HEK293 (SBE reporter) luciferase reporter; type: cell-based; conditions: Homo sapiens; HEK293 (SBE reporter) stable cells, 0.5% FBS, 2 h pre-treatment, TGF-β1 2 ng/mL 24 h; read-out: IC50 HEK 293 Cell
Experimental: [Example 2] Assay for Evaluating Cellular Inhibition of TGF-β Signaling
4T1 (SBE-luc2P) transient pool that have SBE-luc2P (hygro) expression plasmid or HEK293 (SBE reporter) stable cells (BPS bioscience) were seeded at 6×10^3 cells/well or 2.5×10^4 cells/well in 96-well plate, respectively. 4T1 (SBE-luc2P) transient pool were pre-treated with novel compound synthesized in Example 1 above in 0.2% FBS at approximately 60% confluence at 37° C. in 5% CO2. Also, HEK293 (SBE reporter) stable cells were pre-treated with each test compounds of formula in 0.5% FBS at approximately 80% confluence at 37° C. in 5% CO2. After 2 hours, cells were treated with TGF-β1 (2 ng/mL) for 24 h at 37° C. in 5% CO2. Cell lysates were prepared using Luciferase Assay (Promega) according to the manufacturer's instruction, and luminescence was measured by a plate reader, Biotek Synergy H1 (Vermont, USA).

ALK5 kinase = target: T1, ALK5 kinase (Homo sapiens, UniProt P36897); assay: LanthaScreen Eu Kinase Binding Assay; conditions: Kinase Tracer 178, Eu-anti-GST Antibody, read-out: IC50 Enzyme
T1 sequence (P36897 34-503): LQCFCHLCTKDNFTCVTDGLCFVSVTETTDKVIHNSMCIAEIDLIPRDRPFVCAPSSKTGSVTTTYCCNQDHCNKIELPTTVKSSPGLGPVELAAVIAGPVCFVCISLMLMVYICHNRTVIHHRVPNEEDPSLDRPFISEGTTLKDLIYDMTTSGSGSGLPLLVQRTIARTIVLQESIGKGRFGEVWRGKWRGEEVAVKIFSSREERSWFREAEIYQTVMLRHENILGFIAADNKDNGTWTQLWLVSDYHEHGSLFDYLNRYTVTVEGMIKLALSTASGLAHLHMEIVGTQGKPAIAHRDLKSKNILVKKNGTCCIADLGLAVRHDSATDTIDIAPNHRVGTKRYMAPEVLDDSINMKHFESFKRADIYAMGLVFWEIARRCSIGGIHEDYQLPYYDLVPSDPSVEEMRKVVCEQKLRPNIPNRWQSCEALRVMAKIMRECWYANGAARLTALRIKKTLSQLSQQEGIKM
How it was run: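 Tracer-displacement TR-FRET: after 30 min RT compound–kinase preincubation, Eu-labelled anti-GST antibody plus Kinase Tracer 178 were incubated 60 min at RT. Binding was read as a lower 665 nm/615 nm emission ratio (excitation 340 nm).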

TGF-β signaling [2] = assay: Assay for evaluating cellular inhibition of TGF-β signaling, 4T1 (SBE-luc2P) luciferase reporter; type: cell-based; conditions: Mus musculus, 4T1, 4T1 (SBE-luc2P) transient pool, 0.2% FBS, 2 h pre-treatment, TGF-β1 2 ng/mL 24 h; read-out: IC50 4T1 Cell
How it was run: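 Luminescence from SMAD-binding-element luciferase was measured after 24 h of 2 ng/mL TGF-β1 at 37 °C, following 2 h compound pre-treatment. HEK293 stable reporter cells were used at 2.5×10^4/well in 0.5% FBS (~80% confluent); the 4T1 SBE-luc2P transient pool at 6×10^3/well in 0.2% FBS (~60% confluent).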

Structure (SMILES)	IC50 (TGF-β signaling [1])	IC50 (ALK5 kinase)	IC50 (TGF-β signaling [2])
CCc1nc(-c2ccccc2)c(Oc2ccnc(Nc3ccc(C(=O)NC(C)C)cn3)c2)s1 [A-196, 6-((4-((2-Ethyl-4-phenylthiazol-5-yl)oxy)pyridin-2-yl)amino)-N-isopropylnicotinamide]	< 100 nM	–	–
CCc1nc(-c2ccccc2)c(Oc2ccnc(Nc3ccc(C(=O)NCCN4CCCC4)cn3)c2)s1 [A-199, 6-((4-((2-Ethyl-4-phenylthiazol-5-yl)oxy)pyridin-2-yl)amino)-N-(2-(pyrrolidin-1-yl)ethyl)nicotinamide]	< 100 nM	–	–
CCc1nc(-c2ccccc2)c(Oc2ccnc(Nc3ccc(C(=O)NCCN4CCN(C)CC4)cn3)c2)s1 [A-201, 6-((4-((2-Ethyl-4-phenylthiazol-5-yl)oxy)pyridin-2-yl)amino)-N-(2-(4-methylpiperazin-1-yl)ethyl)nicotinamide]	< 100 nM	–	–
CCc1nc(-c2ccccc2)c(Oc2ccnc(Nc3ccc(C(=O)NCCN4CCN(C(C)C)CC4)cn3)c2)s1 [A-202, 6-((4-((2-Ethyl-4-phenylthiazol-5-yl)oxy)pyridin-2-yl)amino)-N-(2-(4-isopropylpiperazin-1-yl)ethyl)nicotinamide]	< 100 nM	–	–
CCc1nc(-c2ccccc2)c(Oc2ccnc(Nc3ccc(C(=O)NCCN4CCN(CC)CC4)cn3)c2)s1 [A-203, 6-((4-((2-Ethyl-4-phenylthiazol-5-yl)oxy)pyridin-2-yl)amino)-N-(2-(4-ethylpiperazin-1-yl)ethyl)nicotinamide]	< 100 nM	–	–
CCc1nc(-c2ccccc2)c(Oc2ccnc(Nc3ccc(N4CCC(N)C4)cn3)c2)s1 (stereo not shown) [A-204, 5-(3-Aminopyrrolidin-1-yl)-N-(4-((2-ethyl-4-phenylthiazol-5-yl)oxy)pyridin-2-yl)pyridin-2-amine]	< 100 nM	–	–
CCc1nc(-c2ccccc2)c(Oc2ccnc(Nc3ccc(NCCN4CCN(C(C)C)CC4)cc3)c2)s1 [A-205, N^1-(4-((2-Ethyl-4-phenylthiazol-5-yl)oxy)pyridin-2-yl)-N^4-(2-(4-isopropylpiperazin-1-yl)ethyl)benzene-1,4-diamine]	< 100 nM	–	–
CCc1nc(-c2ccccc2)c(Oc2ccnc(Nc3ccc(NCCN4CCN(C)CC4)cc3)c2)s1 [A-206, N^1-(4-((2-Ethyl-4-phenylthiazol-5-yl)oxy)pyridin-2-yl)-N^4-(2-(4-methylpiperazin-1-yl)ethyl)benzene-1,4-diamine]	< 100 nM	–	–
CCc1nc(-c2ccccc2)c(Oc2ccnc(Nc3ccc(NCCN4CCN(CC)CC4)cc3)c2)s1 [A-207, N^1-(4-((2-Ethyl-4-phenylthiazol-5-yl)oxy)pyridin-2-yl)-N^4-(2-(4-ethylpiperazin-1-yl)ethyl)benzene-1,4-diamine]	< 100 nM	–	–
CCc1nc(-c2ccccc2)c(Oc2ccnc(Nc3ccc(NCCN4CCCC4)cc3)c2)s1 [A-208, N^1-(4-((2-Ethyl-4-phenylthiazol-5-yl)oxy)pyridin-2-yl)-N^4-(2-(pyrrolidin-1-yl)ethyl)benzene-1,4-diamine]	< 100 nM	–	–
CCc1nc(-c2ccccc2)c(Oc2ccnc(Nc3ccc(NCCN4CCN(C)CC4)cn3)c2)s1 [A-209, N^2-(4-((2-Ethyl-4-phenylthiazol-5-yl)oxy)pyridin-2-yl)-N^5-(2-(4-methylpiperazin-1-yl)ethyl)pyridine-2,5-diamine]	< 100 nM	–	–
CCc1nc(-c2ccccc2)c(Oc2ccnc(Nc3ccc(NCCN4CCCC4)cn3)c2)s1 [A-210, N^2-(4-((2-Ethyl-4-phenylthiazol-5-yl)oxy)pyridin-2-yl)-N^5-(2-(pyrrolidin-1-yl)ethyl)pyridine-2,5-diamine]	< 100 nM	–	–
CCc1nc(-c2ccccc2)c(Oc2ccnc(Nc3ccc(NCCN4CCN(CC)CC4)cn3)c2)s1 [A-211, N^2-(4-((2-Ethyl-4-phenylthiazol-5-yl)oxy)pyridin-2-yl)-N^5-(2-(4-ethylpiperazin-1-yl)ethyl)pyridine-2,5-diamine]	< 100 nM	–	–
CCc1nc(-c2ccccc2)c(Oc2ccnc(Nc3ccc(NCCN4CCN(C(C)C)CC4)cn3)c2)s1 [A-212, N^2-(4-((2-Ethyl-4-phenylthiazol-5-yl)oxy)pyridin-2-yl)-N^5-(2-(4-isopropylpiperazin-1-yl)ethyl)pyridine-2,5-diamine]	< 100 nM	–	–
CCc1nc(-c2ccccc2)c(Oc2ccnc(Nc3ccc(-c4cn[nH]c4)cn3)c2)s1 [A-213, N-(5-(1H-Pyrazol-4-yl)pyridin-2-yl)-4-((2-ethyl-4-phenylthiazol-5-yl)oxy)pyridin-2-amine]	< 100 nM	–	–
CCc1nc(-c2ccccc2)c(Oc2ccnc(Nc3ccc(N4CCC(N)C4)cc3)c2)s1 (stereo not shown) [A-214, N-(4-(3-Aminopyrrolidin-1-yl)phenyl)-4-((2-ethyl-4-phenylthiazol-5-yl)oxy)pyridin-2-amine]	< 100 nM	–	–
CCc1nc(-c2ccccc2)c(Oc2ccnc(Nc3ccc(N4CCC(NC)C4)cc3)c2)s1 (stereo not shown) [A-215, 4-((2-Ethyl-4-phenylthiazol-5-yl)oxy)-N-(4-(3-(methylamino)pyrrolidin-1-yl)phenyl)pyridin-2-amine]	< 100 nM	–	–
CCc1nc(-c2ccccc2)c(Oc2ccnc(Nc3cccc(C(N)=O)n3)n2)s1 [A-241, 6-((4-((2-Ethyl-4-phenylthiazol-5-yl)oxy)pyrimidin-2-yl)amino)picolinamide]	< 100 nM	–	–
CNC(=O)c1ccc(Nc2cc(Oc3sc(N(C)C)nc3-c3cccc(C)n3)ccn2)nc1 [A-286, 6-((4-((2-(Dimethylamino)-4-(6-methylpyridin-2-yl)thiazol-5-yl)oxy)pyridin-2-yl)amino)-N-methylnicotinamide]	–	< 100 nM	< 100 nM
Cc1cccc(-c2nc(C(C)C)sc2Oc2ccnc(Nc3cccc(S(N)(=O)=O)c3)c2)n1 [A-287, 3-((4-((2-Isopropyl-4-(6-methylpyridin-2-yl)thiazol-5-yl)oxy)pyridin-2-yl)amino)benzenesulfonamide]	–	< 100 nM	< 100 nM
Cc1cccc(-c2nc(C(C)C)sc2Oc2ccnc(Nc3ccc(C(N)=O)cn3)c2)n1 [A-288, 6-((4-((2-Isopropyl-4-(6-methylpyridin-2-yl)thiazol-5-yl)oxy)pyridin-2-yl)amino)nicotinamide]	–	< 100 nM	< 100 nM
Cc1cccc(-c2nc(C(F)(F)F)sc2Oc2ccnc(Nc3cccc(S(N)(=O)=O)c3)c2)n1 [A-289, 3-((4-((4-(6-Methylpyridin-2-yl)-2-(trifluoromethyl)thiazol-5-yl)oxy)pyridin-2-yl)amino)benzenesulfonamide]	–	< 100 nM	< 100 nM
Cc1cccc(-c2nc(C(F)(F)F)sc2Oc2ccnc(Nc3ccc(C(N)=O)cn3)c2)n1 [A-290]	–	< 100 nM	< 100 nM
Cc1cccc(-c2nc(C(F)(F)F)sc2Oc2ccnc(Nc3cccc(C(N)=O)c3)c2)n1 [A-291, 3-((4-((4-(6-Methylpyridin-2-yl)-2-(trifluoromethyl)thiazol-5-yl)oxy)pyridin-2-yl)amino)benzamide]	–	< 100 nM	< 100 nM
CNc1nc(-c2cccc(C)n2)c(Oc2ccnc(Nc3cccc(S(N)(=O)=O)c3)c2)s1 [A-292, 3-((4-((2-(Methylamino)-4-(6-methylpyridin-2-yl)thiazol-5-yl)oxy)pyridin-2-yl)amino)benzenesulfonamide]	–	< 100 nM	< 100 nM
Cc1cccc(-c2nc(C)sc2Oc2ccnc(Nc3cccc(S(N)(=O)=O)c3)c2)n1 [A-303, 3-((4-((2-Methyl-4-(6-methylpyridin-2-yl)thiazol-5-yl)oxy)pyridin-2-yl)amino)benzenesulfonamide]	–	< 100 nM	< 100 nM
Cc1cccc(-c2nc(C)sc2Oc2ccnc(Nc3cccc(CC#N)c3)c2)n1 [A-304]	–	< 100 nM	< 100 nM
Cc1cccc(-c2nc(C)sc2Oc2ccnc(Nc3cccc(C(C)(C)C(=O)O)c3)c2)n1 [A-309, 2-Methyl-2-(3-((4-((2-methyl-4-(6-methylpyridin-2-yl)thiazol-5-yl)oxy)pyridin-2-yl)amino)phenyl)propanoic acid]	–	< 100 nM	< 100 nM
CNc1nc(-c2ccccc2)c(Oc2ccnc(Nc3ccc(C(N)=O)cc3)c2)s1 [A-310, 4-((4-((2-(Methylamino)-4-phenylthiazol-5-yl)oxy)pyridin-2-yl)amino)benzamide]	–	< 100 nM	> 100 nM

— US20250206730A1 (AUTOTELIC BIO INC., priority 2022, published 2025)
